Measurements from patent US20240124454A1, “TRICYCLIC COMPOUND AND USE THEREOF” (NANJING ZAIMING PHARMACEUTICAL CO., LTD., priority 2020, published 2024).
Like-named read-outs stand apart in the source and are kept apart here.

What was measured:
HCT116 MTAP^−/− cells = experiment: Cell proliferation inhibition test (Cell-Titer Glo), HCT116 MTAP−/−; type: cell-based, human; conditions: Homo sapiens, HCT-116, 144 h, 6 days, read-out: HCT116 MTAP−/− Antiproliferative activity IC50
Procedure: (§1) Test Example 3. Cell Proliferation Inhibition Test of Human Colon Cancer HCT116 WT Cells and HCT116 MTAP-1-Cells
(§2) The brief introduction of the test principle: After the test MAT2A inhibitor was incubated with cancer cells for a period of time, the effect of the test compound on cell proliferation was measured using a cell proliferation count method based on the ATP content.
(§3) Reference: The experiment referred to the method disclosed in patent WO2018045071.
(§4) Material and cell: HCT116 WT cells and HCT116 MTAP^−/− cells were purchased from KYinno; fetal bovine serum, McCoy's 5a culture medium, and penicillin-streptomycin were purchased from Gibco Company (U.S.), 96-well plates were purchased from Corning Company (U.S.), and the Cell-Titer Glo reagent was purchased from Promega Company (U.S.).
(§5) Cell culture: HCT116 WT cells and HCT116 MTAP^−/− cells were cultured with a McCoy's 5a medium containing 10% fetal bovine serum+1% penicillin-streptomycin at 37° C. with 5% CO2.
(§6) Cells at logarithmic growth phase were available for the experiment.
(§7) Cell proliferation activity test: The Cell-Titer Glo reagent was used to test the compound for inhibitory activity on proliferation of both HCT116 WT and HCT116 MTAP^−/− cell strains. The cells were adjusted to a concentration of 400 cells per well, seeded on a 96-well plate, and incubated overnight at 37° C. with 5% CO2.
(§8) In the experimental group, the test compound was diluted sequentially with DMSO and a culture medium, and transferred to a cell plate at a final concentration of 10 μM, 3-fold dilution. The cells were continuously cultured at 37° C. with 5% CO2 for 6 days. The Cell-Titer Glo reagent was added and the cell activity was measured.
(§9) A negative control group and a positive control group were respectively used as Bottom and Top. The negative control group was not added with cells, only added with the culture medium in the same volume, and other operations were consistent with those of the experimental group. The positive control group was not added with the test compound, only added with DMSO in the same volume, and other operations were consistent with those of the experimental group.
(§10) The % Compound inhibition was calculated and fitted to give the IC50 of the compound.
(§11) % Compound inhibition=1-100%×(Signal−Bottom)/(Top−Bottom).
(§12) Signal referred to the signal value of the experimental group, Bottom referred to the average signal value of the negative control group, and Top referred to the average signal value of the positive control group.
(§13) HCT116 MTAP^−/− cells are cells not expressing MTAP protein obtained by site-directed knockout of wild type HCT116 (HCT116 WT) cells by gene knockout. Synthetic lethality will occur due to MAT2A inhibition and the deletion of MTAP, thereby causing tumor cell death. The activity and selectivity of the MAT2A inhibitor can be evaluated by testing the antiproliferative activity of the MAT2A inhibitor on human colon cancer HCT116 MTAP^−/− cells and human colon cancer HCT116 WT.

HCT116 WT cells = experiment: Cell proliferation inhibition test (Cell-Titer Glo), HCT116 WT; type: cell-based, human; conditions: Homo sapiens, HCT-116, 144 h, 6 days, read-out: HCT116 WT Antiproliferative activity IC50
Procedure: as §1, §2, §3, §4, §5, §6, §7, §8, §9, §10, §11, §12, §13

MAT2A = MAT2A (Homo sapiens (Human), UniProt P31153); experiment: MAT2A biochemical test (inorganic phosphate colorimetric, PiColorLock); conditions: read-out: MAT2A inhibitory Activity IC50
Chain of MAT2A (P31153 whole entry): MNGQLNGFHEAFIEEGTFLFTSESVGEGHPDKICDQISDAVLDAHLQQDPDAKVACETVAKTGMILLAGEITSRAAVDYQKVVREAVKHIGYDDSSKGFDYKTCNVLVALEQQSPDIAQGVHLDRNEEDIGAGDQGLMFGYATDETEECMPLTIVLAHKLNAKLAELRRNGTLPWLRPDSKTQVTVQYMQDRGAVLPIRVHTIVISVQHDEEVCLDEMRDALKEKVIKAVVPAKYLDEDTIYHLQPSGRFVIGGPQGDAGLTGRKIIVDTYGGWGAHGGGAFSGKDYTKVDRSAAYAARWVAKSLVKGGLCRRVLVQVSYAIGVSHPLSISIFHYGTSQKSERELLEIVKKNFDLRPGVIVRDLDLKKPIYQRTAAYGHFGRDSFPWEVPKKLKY
Source text: Test Example 1. Biochemical Test
The brief introduction of the test principle: L-methionine and ATP can be converted into SAM, inorganic phosphate, and inorganic diphosphate under the catalysis of MAT2A enzymes. The content of inorganic phosphate in the sample can be quantitatively determined by adding a developer such as ammonium molybdate or the like to the enzymatic reaction mixture, thereby reflecting the enzymatic activity of MAT2A.
as §3
Material: MAT2A screening kits were purchased from BPS bioscience (U.S.); 384-well plates were purchased from Corning Company (U.S.). • 1. MAT2A protein (Pharmaron Beijing Co., Ltd.); • 2. L-methionine (Sigma #M9625-5G) • 3. ATP (Sigma #A7699-1G) • 4. KCl (Sigma #60142-500ML-F) • 5. Tris (Sigma #T2663-1L) • 6. MgCl2 (Sigma #M1028) • 7. EDTA (Invitrogen #AM9260G) • 8. BSA (Sangon Biotech #A500023-0100) • 9. PiColorLock (abcam #ab270004)
Detection method: In the experimental group, the test compound was dissolved in DMSO, diluted to a final concentration of 10 μM using Echo, and diluted 3-fold. 80 nL of the dilution was transferred to a 384-well plate.
The experimental buffer (50 mM Tris, 50 mM KCl, 15 mM MgCl2, 100 μM EDTA, 0.005% BSA) was prepared. The MAT2A protein was diluted with the experimental buffer (at final concentration of […]). 40 μL of 2×MAT2A solution was added to the 384-well plate. The plate was centrifuged at 1000 rpm for 1 min and incubated at room temperature for 120 min.
L-methionine and ATP (the final concentration of L-methionine was […] and the final concentration of ATP was 400 μM) were diluted with the experimental buffer. 40 μL of 2×L-methionine and ATP solution was added to initiate the reaction. The plate was centrifuged at 1000 rpm for 1 min and incubated at room temperature for 90 min.
The PiColorLock™ reaction catalyst was mixed with the PiColorLock™ buffer at a ratio of 1:100 according to the instructions. 20 μL was added to each well, and the plate was shaken for 30 s. 8 μL stabilizing reagent was added, and the plate was shaken for 30 s. The signal values were measured after 30 min of incubation at room temperature.
as §9, with “MAT2A protein,” for “cells, only added with the culture medium in the same volume,”
as §10, §11, §12
Under the condition of this experiment, the inhibitory effect of the test compound on MAT2A can be expressed as the IC50 of the inhibition on the phosphate production level during the enzymatic reaction.

Row | Compound | IC50 (HCT116 MTAP^−/− cells) [nM] | IC50 (HCT116 WT cells) [nM] | IC50 (MAT2A; class symbols) [nM] | IC50 (MAT2A; numeric values) [nM]
1 | Cn1cnc2c(=O)n(-c3cccnc3C(F)(F)F)c3nc(C(F)(F)F)ccc3c21 (atropisomer, axis not shown) [Compound 41, 1-methyl-7-(trifluoromethyl)-5-(2-(trifluoromethyl)pyridin-3-yl)-1,5-dihydro-4H-imidazo[4,5-c][1,8]naphthyridin-4-one] | 164 | 7860 | < 100 | 56.8
2 | Cn1cnc2c(=O)n(-c3cccnc3C3CC3)c3nc(C(F)(F)F)ccc3c21 (atropisomer, axis not shown) [Compound 42, 5-(2-cyclopropylpyridin-3-yl)-1-methyl-7-(trifluoromethyl)-1,5-dihydro-4H-imidazo[4,5-c][1,8]naphthyridin-4-one] | 244 | 2200 | < 100 | 47
3 | Cc1ncccc1-n1c(=O)c2ncn(C)c2c2ccc(Cl)cc21 (atropisomer, axis not shown) [Compound 46, 7-chloro-1-methyl-5-(2-methylpyridin-3-yl)-1,5-dihydro-4H-imidazo[4,5-c]quinolin-4-one] | 87 | 473 | < 100 | 48.5
4 | Cn1cnc2c(=O)n(-c3cccnc3C(F)(F)F)c3cc(Cl)ccc3c21 (atropisomer, axis not shown) [Compound 47, 7-chloro-1-methyl-5-(2-(trifluoromethyl)pyridin-3-yl)-1,5-dihydro-4H-imidazo[4,5-c]quinolin-4-one] | 232 | > 10000 | < 100 | 50.2
5 | CCn1cnc2c(=O)n(-c3ccccc3Cl)c3nc(C(F)(F)F)ccc3c21 [Compound 61, 5-(2-chlorophenyl)-1-ethyl-7-(trifluoromethyl)-1,5-dihydro-4H-imidazo[4,5-c][1,8]naphthyridin-4-one] | – | – | 100 to 500 | 102
6 | Cn1cnc2c(=O)n(-c3ccc(Cl)cc3Cl)c3nc(C(F)(F)F)ccc3c21 [Compound 62, 5-(2,4-dichlorophenyl)-1-methyl-7-(trifluoromethyl)-1,5-dihydro-4H-imidazo[4,5-c][1,8]naphthyridin-4-one] | – | – | 100 to 500 | 251
7 | Cn1cnc2c(=O)n(-c3cccc(F)c3)c3nc(C(F)(F)F)ccc3c21 [Compound 63, 5-(3-fluorophenyl)-1-methyl-7-(trifluoromethyl)-1,5-dihydro-4H-imidazo[4,5-c][1,8]naphthyridin-4-one] | – | – | < 100 | 48.1
8 | Cn1cnc2c(=O)n(-c3cccc(F)c3Cl)c3cc(C(F)(F)F)ccc3c21 [Compound 66, 5-(2-chloro-3-fluorophenyl)-1-methyl-7-(trifluoromethyl)-1,5-dihydro-4H-imidazo[4,5-c]quinolin-4-one] | – | – | < 100 | 47.3
9 | Cn1cnc2c(=O)n(-c3ccc(OC(F)F)cn3)c3nc(C(F)(F)F)ccc3c21 [Compound 69, 5-(5-(difluoromethoxy)pyridin-2-yl)-1-methyl-7-(trifluoromethyl)-1,5-dihydro-4H-imidazo[4,5-c][1,8]naphthyridin-4-one] | – | – | 100 to 500 | 282
10 | Cn1cnc2c(=O)n(-c3ccc(OC(F)F)c(F)c3)c3nc(C(F)(F)F)ccc3c21 [Compound 71, 5-[4-(difluoromethoxy)-3-fluorophenyl]-1-methyl-7-(trifluoromethyl)-1,5-dihydro-4H-imidazo[4,5-c][1,8]naphthyridin-4-one] | – | – | 500 to 1000 | 978
11 | Cc1ncccc1-n1c(=O)c2ncn(Cc3cnn(C)c3)c2c2ccc(C(F)(F)F)nc21 [Compound 74, 1-((1-methyl-1H-pyrazol-4-yl)methyl)-5-(2-methylpyridin-3-yl)-7-(trifluoromethyl)-1,5-dihydro-4H-imidazo[4,5-c][1,8]naphthyridin-4-one] | – | – | 100 to 500 | 140
12 | Cc1ncccc1-n1c(=O)c2ncn(C)c2c2cnc(C(F)(F)F)nc21 [Compound 75, 1-methyl-5-(2-methylpyridin-3-yl)-7-(trifluoromethyl)-1,5-dihydro-4H-imidazo[4′,5′:4,5]pyrido[2,3-d]pyrimidin-4-one] | – | – | < 100 | 71.7
13 | Cn1cnc2c(=O)n(-c3cncnc3)c3nc(C(F)(F)F)ccc3c21 [Compound 76, 1-methyl-5-(pyrimidin-5-yl)-7-(trifluoromethyl)-1,5-dihydro-4H-imidazo[4,5-c][1,8]naphthyridin-4-one] | – | – | 100 to 500 | 201
14 | Cn1cnc2c(=O)n(-c3cnccn3)c3nc(C(F)(F)F)ccc3c21 [Compound 77, 1-methyl-5-(pyrazin-2-yl)-7-(trifluoromethyl)-1,5-dihydro-4H-imidazo[4,5-c][1,8]naphthyridin-4-one] | – | – | 100 to 500 | 337
15 | Cn1cnc2c(=O)n(-c3cccc(F)c3F)c3nc(C(F)(F)F)ccc3c21 [Compound 78, 5-(2,3-difluorophenyl)-1-methyl-7-(trifluoromethyl)-1,5-dihydro-4H-imidazo[4,5-c][1,8]naphthyridin-4-one] | – | – | < 100 | 80.2
16 | Cc1ncncc1-n1c(=O)c2ncn(C)c2c2ccc(C(F)(F)F)nc21 [Compound 79, 1-methyl-5-(4-methylpyrimidin-5-yl)-7-(trifluoromethyl)-1,5-dihydro-4H-imidazo[4,5-c][1,8]naphthyridin-4-one] | – | – | 100 to 500 | 102
17 | Cc1ncccc1-n1c(=O)c2ncoc2c2ccc(Cl)cc21 [Compound 83, 7-chloro-5-(2-methylpyridin-3-yl)oxazolo[4,5-c]quinolin-4(5H)-one] | – | – | < 100 | 54.7
18 | Cn1cnc2c(=O)n(-c3cccnc3C(F)(F)F)c3cc(C(F)(F)F)ccc3c21 [Compound 84, 1-methyl-7-(trifluoromethyl)-5-(2-trifluoromethylpyridin-3-yl)-1,5-dihydro-4H-imidazo[4,5-c]quinolin-4-one] | – | – | < 100 | 53.4
